Tests used:
K562 cells = experiment: K562-based MTT cell viability assay; design: species or system human; conditions: Homo sapiens, 48 h, read-out: Activity (IC50, reduction of cell viability)
Method: Cell viability was assayed by measuring the mitochondrial reduction of the tetrazolium salt 3-(4,5-methyltiazol-2yl)-2,5diphenyl-tetrazolium bromide] (MTT) (Applichen; A2231,0010) (Mosmann T. J Immunol Methods. 1983 16; 65(1-2):55-63; Chuan Y-C et al 2010. Oncogene. 29 (10), 1531-1542. Cells were seeded in 96-well plates in medium supplemented with 10% FBS (Lonza Cat. No: 14-502F), 2 mM L-Glut (Lonza Cat. No: BE17-605E) and 100 U/ml PEST (Lonza Cat. No: DE17-605E) at a cell density of 5000-20000 cells/well. Cells were seeded at a density according to their exponential growth phase. Vehicle (0.05% DMSO) or drug were added to culture medium at the indicated concentrations (10 to 0.01 microM) during 48 h. Then, MTT (0.3 mg/ml) was added to cells following by incubation for 2-4 h at 37° C. in the dark. The medium was then discarded and the formazan precipitate was solubilized by addition of 20% SDS (Sigma; L-5750) in 0.02N HCl (Panreac; 131020.1611) for 12-16 h. The optical density was measured at 595 nm with the iMark Microplate Reader (BioRad, USA). Data was expressed as percent growth above the level in controls and the results in figures were plotted as means±SEM of each test point from 3 replicates.
Statistical analysis. The concentration of drug that provokes 50% reduction of cell viability (IC50) was determined by using non-linear regression analysis and data were fitted to a log concentration vs normalized response curve in GraphPad software v5 (San Diego, Calif.).

[1] = tested on: STAT5 transcription (pSPI-GLE1-luc) in HEK-GHR cells; experiment: HEK-GHR STAT5 transcription assay (luciferase reporter, rhGH stimulated); assay type: cell-based, human; conditions: Homo sapiens, compound 45 minutes before 50 nM rhGH, six hours, read-out: Activity (IC50, reduction of luciferase activity)
Text: Plasmids: The full-length GHR was subcloned into pcDNA1/ampicillin (Invitrogen) as described previously (Ross R J, Esposito N, Shen X Y, et al., Mol Endocrinol 1997, 11:265-73). The pSPI-GLE1 (serine protease inhibitor 2.1 GAS-like element 1)-luc reporter construct was generated by subcloning the Stat5-binding element from serine protease inhibitor gene together with a minimal thymidine kinase promoter into the pGL2 plasmid (Promega), which contains the firefly luciferase cDNA (Wood T J, Sliva D, Lobie P E, et al. J Biol Chem 1995, 270:9448-53).
Cell culture: HEK-GHR cell line was maintained in Dulbecco's Modified Eagle Medium (DMEM)/F12 supplemented with 10% fetal bovine serum (FBS) and 50 U/ml penicillin/50 U/ml streptomycin. The cells were maintained in a humidified incubator with 5% CO2 at 37° C. Cell culture reagents were obtained from PAA laboratories. The HEK-GHR cell line is a stable clone generated and kindly donated by Prof. Richard Ross (Clinical Sciences, Northern General Hospital, Sheffield, UK). Briefly, HEK-GHR cell line was generated in HEK 293 cells (human kidney embryonal cell line) by transfection with the calcium phosphate procedure of the GHR plasmid with pcDNA3/Neo (Invitrogen). Selection was made using G418 (400 ug/ml, Sigma) (Maamra M, Finidori J, Von Laue S, et al., J Biol Chem 1999, 274(21):14791-8).
Luciferase reporter assay: Transcription assays were performed in HEK-GHR. The HEK-GHR cells were co-transfected with Stat5 luciferase (pSPI-GLE1-luc) reporter vector together with a plasmid constitutively expressing beta-galactosidase by using Metafectene Pro as described by the manufacturer (Biontex Laboratories GmbH, Munich, Germany). Following transfection, HEK-GHR cells were serum-starved for 20 h. Cells were then treated with vehicle (0.1% DMSO) or the indicated compound for 45 minutes prior to the addition of 50 nM recombinant human Growth Hormone (rhGH) (Norditropin, Novo Nordisk) to the medium. Six hours following rhGH addition, cells were harvested with Passive Lysis Buffer (Promega), and levels of luciferase were measured using Luciferase Assay System as described by the manufacturer (Promega). The Galacto-Light Plus System (Applied Biosystems) was used to measure beta-galactosidase activity.
Statistical analysis. The concentration of drug that provokes 50% reduction of luciferase activity (IC50) was determined by using non-linear regression analysis and data were fitted to a log concentration vs normalized response curve in GraphPad software v5 (San Diego, Calif.).

HEL cells = experiment: Induction of apoptosis in HEL cells (annexin-V-FITC/propidium iodide flow cytometry); assay type: cell-based, human; conditions: 24 or 48 hours
Method: FIG. 3. • Analysis of phosphatidylserine externalization in human erythroleukemia cells (HEL) treated with compound 4 or the reported JAK-STAT inhibitor WP 1066. A) At different concentrations for 24 hours. B) Representation of the data obtained after treatment of cells with 5 μM of compound 4 for 48 hours compared to vehicle. (C) Data obtained after treatment of the cells with a concentration of 5 μM of compound 4 for 24 or 48 hours. Data are representative of three experiments. * Signifies a P<0.01 difference from control. ^0 Signifies a P<0.001 difference from control.
Human erythroleukemia (HEL) cells, at a density of 1.5×10^5 cells/ml, were treated with compound 4 at the indicated concentrations for 24 or 48 hours. The cells were incubated with propidium iodide and annexin-V-FITC and the quantity of phosphatidylserine externalized was determined using flow cytometry.

N#Cc1ccc(C2C3=C(CCCC3=O)OC3=C2C(=O)c2ccccc2C3=O)cc1 (stereo not drawn) [Compound 4, 4-(1,6,11-trioxo-2,3,4,6,11,12-hexahydro-1H-benzo[b]xanthen-12-yl)benzonitrile]
IC50 (K562 cells): < 1000 nM | IC50 [1]: < 1000 nM | apoptosis of HEL cells (phosphatidylserine externalization) (HEL cells): induced, in a dose and time dependent manner, apoptosis

Reference: patent US20150175585A1, “FUSED QUINONIC COMPOUNDS” (CENTRO ATLANTICO DEL MEDICAMENTO S.A (CEAMED, S.A.), priority 2012, published 2015)
